#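 How tested: cells in 96-well plates exposed to compound for 48 hours at five concentrations. TGI marks complete inhibition of growth.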 Where a SMILES comes first, the peptide text is derived from it. The star is where a group is joined. Boc = CC(C)(C)OC(=O)*
# What was measured:
# Test in all cases: NCI tumour cell line growth inhibition, 48 h
# UACC-257 melanoma = system: UACC-257 melanoma
# UACC-62 melanoma = system: UACC-62 melanoma
# SF-539 CNS = system: SF-539 CNS
# CCRF-CEM leukemia = system: CCRF-CEM leukemia
# OVCAR-5 ovarian = system: OVCAR-5 ovarian
# EKVX NSCLC = system: EKVX NSCLC
# OVCAR-3 ovarian = system: OVCAR-3 ovarian
SMILES,TGI (UACC-257 melanoma) [µM],TGI (UACC-62 melanoma) [µM],TGI (SF-539 CNS) [µM],TGI (CCRF-CEM leukemia) [µM],TGI (OVCAR-5 ovarian) [µM],TGI (EKVX NSCLC) [µM],TGI (OVCAR-3 ovarian) [µM]
CCCCCCCCCC(=O)NCCc1c[nH]c2ccc(OC)cc12,41.8,30.4,46,37.5,61.2,89.8,30.3
O=C(NC(=O)c1ccccc1)OC(c1ccccc1)C1CO1 (centres undefined),> 100,> 100,> 100,> 100,> 100,> 100,> 100
CCCCC(O)(c1ccccc1)C(O)(c1ccccc1)c1c(F)c(F)c(F)c(F)c1F (centres undefined),49.1,39.2,–,88.7,41.1,59.6,32.6
C=C[C@]1(C)CC(=O)C(C(C)C=O)[C@]12C(=O)Oc1cccc(C)c1C2=O (some centres undefined),33.2,31,31,17.6,30.6,40.2,29.6
COc1ccc2nc3cc([N+](=O)[O-])ccc3c(NNc3ccc([N+](=O)[O-])cc3)c2c1,16,> 50.7,> 100,98.6,> 100,> 100,> 100
Cc1occc1C(=S)Nc1ccc(Cl)c(C(=O)OCC(C)C)c1,40.2,26.5,43.6,> 100,88.1,31,46.5
O=C(O)C1CC(C2CCCCN2)CN2CCCCC12 (centres undefined),> 100,> 100,> 100,> 100,> 100,> 100,> 100
O=C(O)CCNc1ncc2c(n1)-c1ccccc1OC2,> 100,> 100,> 100,> 100,> 100,> 100,> 100
COc1cccc(C2c3cc4c(cc3OC(NNC(N)=O)C2C)OCO4)c1O (centres undefined),> 100,> 100,6.55,> 100,> 100,> 50.9,29.6
O=C1C=CC(=O)c2c(O)c(NCCO)c(Cl)c(O)c21,2.78,3.47,5.73,> 10,> 5.87,> 10,7.41
CCOc1ccc(N2C(=O)NC3(c4ccccc4)N(C)C(=O)N(C)C23c2ccccc2)cc1 (centres undefined),> 100,> 100,> 100,> 100,> 100,> 100,> 100
CC(NC(=O)C1CCCN1C(=O)CNC(=O)OC(C)(C)C)C(=O)O (stereo not drawn) (Boc-Gly-Pro-Ala-OH; configuration not given here),> 100,> 100,> 100,–,> 100,> 100,> 100
CCOc1cc(/C=N/c2nc3cc4sc(/N=C/c5ccc(O)c(OCC)c5)nc4cc3s2)ccc1O,> 100,> 100,62.3,–,> 100,> 100,> 100
Cc1n[nH]c(=O)n1Nc1ccccc1,> 100,> 100,> 100,> 100,> 100,> 100,> 100
O=C(c1cc(Cl)cc(Cl)c1)N(Cc1cccnc1)C(=S)N(Cc1cccnc1)C(=O)c1cc(Cl)cc(Cl)c1,> 100,> 100,51.4,> 100,> 100,> 100,61.6
CC1=NN(c2cccc(Cl)c2)C2(C1=Cc1cccs1)C(Cl)C(=O)N2c1nc2ccccc2s1 (centres undefined),57.3,–,30.5,–,41.9,42.8,52
COc1ccc(N=C(CS(=O)c2ccc(C)cc2)C(F)(F)F)cc1 (centres undefined),> 100,> 100,> 100,> 100,> 100,> 100,> 100
CC(=O)Nc1ncc2c(n1)-c1ccccc1OC2c1ccccc1 (centres undefined),> 100,36.4,35.1,> 100,> 100,> 100,> 100
Fc1ccc(Oc2nc3ccccc3nc2-c2ccccc2)cc1,> 100,> 100,–,> 100,> 100,> 100,> 100
O=C(CCc1ccc(O)c(O)c1)NCCc1ccccc1,> 100,> 65.2,> 89.9,> 90.8,> 100,> 100,> 100
COc1ccc(C[n+]2cccc(O)c2)cc1,–,> 100,> 100,> 100,> 100,> 100,> 100
CC1(c2nc3ccccc3[nH]2)CCC(C#N)C(C)(C)O1 (centres undefined),> 100,> 100,> 100,> 100,> 100,> 100,> 100
CCOC(CN(C)C(=O)Nc1ccc(Cl)c(Cl)c1)OCC,> 10,> 10,> 10,> 10,–,> 10,> 10
CCCC(=O)N(C)N=Nc1ccc(C(=O)OCC)cc1,> 100,> 100,> 100,> 100,> 100,> 100,> 100
OCC1C2CCC3(OCCO3)C12 (centres undefined),> 100,33,> 100,> 100,> 100,> 100,> 100
Brc1c2c(c(Br)c3nsnc13)N=S=N2,> 100,33.5,57.6,5.2,64.3,> 74,68.6
CC(NC(=O)C(N)CC(=O)O)C(=O)OC12CC3CC(CC(C3)C1)C2 (centres undefined),> 100,> 100,–,> 100,> 100,> 100,–
